In patent publication US8962608B2, “Cycloalkylnitrile pyrazole carboxamides as janus kinase inhibitors” (Merck Sharp & Dohme Corp., priority 2011, dated 2015):

Molecular target: JAK2 (recombinant purified GST-tagged catalytic domain) (Homo sapiens (Human), UniProt O60674)
Assay: biochemical
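Note: biochemical JAK kinase assay with HTRF detection.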

Sequence of JAK2 (recombinant purified GST-tagged catalytic domain) (O60674 849-1124): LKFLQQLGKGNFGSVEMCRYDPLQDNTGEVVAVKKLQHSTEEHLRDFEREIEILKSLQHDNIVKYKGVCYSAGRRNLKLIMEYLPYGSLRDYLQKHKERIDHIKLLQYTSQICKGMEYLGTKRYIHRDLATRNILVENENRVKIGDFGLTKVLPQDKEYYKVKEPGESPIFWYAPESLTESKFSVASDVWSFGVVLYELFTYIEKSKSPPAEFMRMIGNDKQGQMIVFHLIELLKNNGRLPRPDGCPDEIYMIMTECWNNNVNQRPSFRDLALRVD

Compound | IC50 [nM]
N#C[C@H]1C[C@@H](NCCC(F)(F)F)CC[C@@H]1n1cc(C(N)=O)c(Nc2ccc(S(=O)(=O)C(F)(F)F)cc2)n1 (single isomer, unassigned) [Example 28-166, 1-{(1S,2S,4S or 1R,2R,4R)-2-cyano-4-[(3,3,3-trifluoro-propyl)amino]cyclohexyl}-3-({4-[(trifluoro-methyl)sulfonyl]phenyl}amino)-1H-pyrazole-4-carboxamide] | 55
N#C[C@H]1C[C@H](N2CCC2)CC[C@@H]1n1cc(C(N)=O)c(Nc2ccc(Cl)c(F)c2)n1 (single isomer, unassigned) [Example 28-37, 1-[(1S,2S,4R or 1R,2R,4S)-4-azetidin-1-yl-2-cyanocyclohexyl]-3-[(4-chloro-3-fluorophenyl)amino]-1H-pyrazole-4-carboxamide] | 120
N#C[C@@H]1CCCC[C@H]1n1cc(C(N)=O)c(Nc2ccc(S(=O)(=O)C(F)F)cc2)n1 (single isomer, unassigned) [Example 43-5, 1-[(1S,2S or 1R,2R)-2-cyanocyclohexyl]-3-({4-[(difluoromethyl)sulfonyl]phenyl}amino)-1H-pyrazole-4-carboxamide] | 28
N#C[C@H]1C[C@H](NCCC(F)(F)F)CC[C@@H]1n1cc(C(N)=O)c(Nc2ccc(S(=O)(=O)C(F)(F)F)cc2)n1 (single isomer, unassigned) [Example 28-167, 1-{(1S,2S,4R or 1R,2R,4S)-2-cyano-4-[(3,3,3-trifluoropropyl)amino]cyclo-hexyl}-3-({4-[(trifluoro-methyl)sulfonyl]phenyl}amino)-1H-pyrazole-4-carboxamide] | 82
C[C@H](N[C@@H]1CC[C@H](n2cc(C(N)=O)c(Nc3ccc(C(F)(F)F)nc3)n2)[C@@H](C#N)C1)C1CC1 (single isomer, unassigned) [Example 28-19, 1-[(1S,2S,4R or 1R,2R,4S)-2-cyano-4-{[(1S)-1-cyclopropylethyl]amino}cyclo-hexyl]-3-{[6-(trifluoromethyl)pyridin-3-yl]amino}-1H-pyrazole-4-carboxamide] | 675
N#C[C@H]1C[C@H](O)CC[C@@H]1n1cc(C(N)=O)c(Nc2ccc(C3CC3)cc2)n1 (single isomer, unassigned) [Example 25-14, 1-[(1S,2S,4R or 1R,2R,4S)-2-cyano-4-hydroxycyclohexyl]-3-[(4-cyclopropylphenyl)amino]-1H-pyrazole-4-carboxamide] | 25
CN(C)[C@H]1CC[C@H](n2cc(C(N)=O)c(Nc3ccc(C(F)(F)F)nc3)n2)[C@@H](C#N)C1 (single isomer, unassigned) [Example 28-22, 1-[(1S,2S,4S or 1R,2R,4R)-2-cyano-4-(dimethylamino)cyclohexyl]-3-{[6-(trifluoromethyl)pyridin-3-yl]amino}-1H-pyrazole-4-carboxamide] | 145
N#C[C@H]1C[C@@H](N2CC3(CCC3)C2)CC[C@@H]1n1cc(C(N)=O)c(Nc2ccccc2)n1 (single isomer, unassigned) [Example 28-136, 1-[(1S,2S,4S or 1R,2R,4R)-4-(2-azaspiro[3.3]hept-2-yl)-2-cyanocyclohexyl]-3-(phenylamino)-1H-pyrazole-4-carboxamide] | 61
N#C[C@H]1C[C@@H](NCC(F)F)CC[C@@H]1n1cc(C(N)=O)c(Nc2ccnc(F)c2)n1 (single isomer, unassigned) [Example 28-115, 1-{(1S,2S,4S or 1R,2R,4R)-2-cyano-4-[(2,2-difluoroethyl)amino]cyclohexyl}-3-[(2-fluoropyridin-4-yl)amino]-1H-pyrazole-4-carboxamide] | 33
N#C[C@@H]1C[C@@H](OCC2CC2)CC[C@H]1n1cc(C(N)=O)c(Nc2ccc(F)cc2)n1 (single isomer, unassigned) [Example 26-10, 1-[(1R,2R,4S or 1S,2S,4R)-2-cyano-4-(cyclopropylmethoxy)cyclohexyl]-3-[(4-fluorophenyl)amino]-1H-pyrazole-4-carboxamide] | 102
N#C[C@H]1CCCC[C@@H]1n1cc(C(N)=O)c(Nc2ccc(F)c(Cl)c2)n1 (racemic) [Example 17-58, 3-[(3-chloro-4-fluorophenyl)amino]-1-[(1S,2S and 1R,2R)-2-cyanocyclohexyl]-1H-pyrazole-4-carboxamide] | 42
C[C@H](N[C@@H]1CC[C@H](n2cc(C(N)=O)c(Nc3ccc(S(=O)(=O)C(F)(F)F)cc3)n2)[C@@H](C#N)C1)C1CC1 (single isomer, unassigned) [Example 28-185, 1-[(1S,2S,4R or 1R,2R,4S)-2-cyano-4-{[(1S)-1-cyclopropylethyl]amino}cyclo-hexyl]-3-({4-[(trifluoromethyl)sulfonyl]phen-yl}amino)-1H-pyrazole-4-carboxamide] | 83
CC1(C)CN([C@@H]2CC[C@H](n3cc(C(N)=O)c(Nc4ccc([C@@H](O)C(F)(F)F)cc4)n3)[C@@H](C#N)C2)C1 (single isomer, unassigned) [Example 28-81, 1-[(1S,2S,4R or 1R,2R,4S)-2-cyano-4-(3,3-dimethylazetidin-1-yl)cyclohexyl]-3-({4-[(1R or 1S)-2,2,2-trifluoro-1-hydroxyethyl]phenyl}amino)-1H-pyrazole-4-carboxamide] | 24
CC(C)(C)OC(=O)N[C@@H]1CC[C@H](C#N)C(n2cc(C(N)=O)c(Nc3ccc(F)cc3)n2)C1 (single isomer, unassigned) [Example 44-1, tert-Butyl[(1R,3S,4S or 1S,3R,4R)-3-{4-carbamoyl-3-[(4-fluorophenyl)amino]-1H-pyrazol-1-yl}-4-cyanocyclohexyl]carbamate] | 43
CC(C)(C)OC(=O)N[C@@H]1CC[C@H](C#N)C(n2cc(C(N)=O)c(Nc3ccc(F)cc3)n2)C1 (single isomer, unassigned) [Example 44-2, tert-Butyl[(1R,3S,4S or 1S,3R,4R)-3-{4-carbamoyl-3-[(4-fluorophenyl)amino]-1H-pyrazol-1-yl}-4-cyanocyclohexyl]carbamate] | 990
CN(C(C1CC1)C1CC1)[C@@H]1CC[C@H](n2cc(C(N)=O)c(Nc3ccc(S(=O)(=O)C(F)(F)F)cc3)n2)[C@@H](C#N)C1 (single isomer, unassigned) [Example 28-179, 1-{(1S,2S,4R or 1R,2R,4S)-2-cyano-4-[(dicyclopropyl-methyl)(methyl)amino]cyclo-hexyl}-3-({4-[(trifluoromethyl)sulfonyl]phen-yl}amino)-1H-pyrazole-4-carboxamide] | 170

Second part, the molecule after the results:

IC50 [nM] | Compound
6 | N#C[C@H]1C[C@@H](NCC(F)(F)F)CCC1n1cc(C(N)=O)c(Nc2ccc(S(=O)(=O)C(F)(F)F)cc2)n1 (mixture of isomers) [Example 27-11, 1-{(1S,2S,4S and 1R,2R,4R)-2-cyano-4-[(2,2,2-trifluoroethyl)amino]cyclohexyl}-3-({4-[(trifluoromethyl)sulfonyl]phenyl}amino)-1H-pyrazole-4-carboxamide]
4 | CC(C)(c1ccc(Nc2nn([C@H]3CCCC[C@@H]3C#N)cc2C(N)=O)cc1F)[C@@H](O)C(F)(F)F (single isomer, unassigned) [Example 17-33, 1-[(1S,2S or 1R,2R)-2-cyanocyclohexyl]-3-({3-fluoro-4-[(2R or 2S)-3,3,3-trifluoro-2-hydroxy-1,1-dimethylpropyl]phenyl}amino)-1H-pyrazole-4-carboxamide]
11 | CCNC1CCC(n2cc(C(N)=O)c(Nc3ccc(S(=O)(=O)C(F)(F)F)cc3)n2)[C@@H](C#N)C1 (mixture of isomers) [Example 27-5, 1-[(1S,2S and 1R,2R)-2-cyano-4-(ethylamino)cyclohexyl]-3-({4-[(trifluoromethyl)sulfonyl]phenyl}amino)-1H-pyrazole-4-carboxamide]
12 | N#C[C@H]1C[C@H](N2CCC2)CC[C@@H]1n1cc(C(N)=O)c(Nc2ccc([C@H](O)C(F)(F)F)cc2)n1 (single isomer, unassigned) [Example 28-65, 1-[(1S,2S,4R or 1R,2R,4S)-4-azetidin-1-yl-2-cyanocyclohexyl]-3-({4-[(1S or 1R)-2,2,2-trifluoro-1-hydroxyethyl]phenyl}amino)-1H-pyrazole-4-carboxamide]
17 | N#C[C@H]1C[C@H](N2CCC2)CC[C@@H]1n1cc(C(N)=O)c(Nc2ccc([C@@H](O)C(F)(F)F)cc2)n1 (single isomer, unassigned) [Example 28-85, 1-[(1S,2S,4R or 1R,2R,4S)-4-azetidin-1-yl-2-cyanocyclohexyl]-3-({4-[(1R or 1S)-2,2,2-trifluoro-1-hydroxyethyl]phenyl}amino)-1H-pyrazole-4-carboxamide]
11 | N#C[C@H]1C[C@@H](NCC(F)F)CCC1n1cc(C(N)=O)c(Nc2ccc(S(=O)(=O)C(F)(F)F)cc2)n1 (mixture of isomers) [Example 27-14, 1-{(1S,2S,4S and 1R,2R,4R)-2-cyano-4-[(2,2-difluoroethyl)amino]cyclohexyl}-3-({4-[(trifluoromethyl)sulfonyl]phenyl)amino)-1H-pyrazole-4-carboxamide]
24 | N#C[C@H]1C[C@H](NCC2CC2)CC[C@@H]1n1cc(C(N)=O)c(Nc2ccc(S(=O)(=O)C(F)(F)F)cc2)n1 (single isomer, unassigned) [Example 28-173, 1-{(1S,2S,4R or 1R,2R,4S)-2-cyano-4-[(cyclopropyl-methyl)amino]cyclohexyl}-3-({4-[(trifluoro-methyl)sulfonyl]phenyl}amino)-1H-pyrazole-4-carboxamide]
4 | CCS(=O)(=O)c1ccc(Nc2nn(C3CCCC[C@@H]3C#N)cc2C(N)=O)cc1 (mixture of isomers) [Example 17-10, 1-[(1S,2S and 1R,2R)-2-cyanocyclohexyl]-3-{[4-(ethylsulfonyl)phenyl]amino}-1H-pyrazole-4-carboxamide]
18 | CS(=O)(=O)c1ccc(Nc2nn(C3CCCC[C@H]3C#N)cc2C(N)=O)cc1 (mixture of isomers) [Example 2-14, 1-[(1S,2R and 1R,2S)-2-cyanocyclohexyl]-3-{[4-(methylsulfonyl)phenyl]amino}-1H-pyrazole-4-carboxamide]
22 | N#Cc1ccc(Nc2nn([C@H]3CCCC[C@@H]3C#N)cc2C(N)=O)cn1 (single isomer, unassigned) [Example 17-75, 1-[(1R,2R or 1S,2S)-2-cyanocyclohexyl]-3-[(6-cyanopyridin-3-yl)amino]-1H-pyrazole-4-carboxamide]
